In patent US20110081315A1, “NOVEL MACROCYCLIC INHIBITORS OF HEPATITIS C VIRUS REPLICATION” (INTERMUNE, INC., priority 2009, published 2011):

Tests used:
[1] = target: NS3/NS4 complexes (Hepatitis C virus genotype 1a, UniProt P27958); assay: NS3/NS4 inhibition assay (IC50); format: biochemical; conditions: NS3/NS4 activity; 23° C., 25 μM NS4A peptide
How it was run: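 Read-outs are IC50 for inhibition of the NS3/NS4 complex and EC50 in an HCV replicon system. Biochemical runs use 23° C. and a 50 mM Tris-HCl (pH 7.5) buffer with 15% glycerol, 10 mM DTT, 0.6 mM LDAO and 25 μM NS4A peptide.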

[2] = system: hepatitis C replicon; assay: hepatitis C replicon EC50 assay; format: cell-based; conditions: Hepatitis C virus; hepatitis C replicon; read-out: EC50
How it was run: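 Enzyme IC50: NS3/NS4 complex, 23° C.; buffer Tris-HCl 50 mM pH 7.5 / glycerol 15% / DTT 10 mM / LDAO 0.6 mM / NS4A peptide 25 μM. Cellular: HCV replicon EC50.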

Sequence of NS3/NS4 complexes (P27958 1027-1657, one chain of several): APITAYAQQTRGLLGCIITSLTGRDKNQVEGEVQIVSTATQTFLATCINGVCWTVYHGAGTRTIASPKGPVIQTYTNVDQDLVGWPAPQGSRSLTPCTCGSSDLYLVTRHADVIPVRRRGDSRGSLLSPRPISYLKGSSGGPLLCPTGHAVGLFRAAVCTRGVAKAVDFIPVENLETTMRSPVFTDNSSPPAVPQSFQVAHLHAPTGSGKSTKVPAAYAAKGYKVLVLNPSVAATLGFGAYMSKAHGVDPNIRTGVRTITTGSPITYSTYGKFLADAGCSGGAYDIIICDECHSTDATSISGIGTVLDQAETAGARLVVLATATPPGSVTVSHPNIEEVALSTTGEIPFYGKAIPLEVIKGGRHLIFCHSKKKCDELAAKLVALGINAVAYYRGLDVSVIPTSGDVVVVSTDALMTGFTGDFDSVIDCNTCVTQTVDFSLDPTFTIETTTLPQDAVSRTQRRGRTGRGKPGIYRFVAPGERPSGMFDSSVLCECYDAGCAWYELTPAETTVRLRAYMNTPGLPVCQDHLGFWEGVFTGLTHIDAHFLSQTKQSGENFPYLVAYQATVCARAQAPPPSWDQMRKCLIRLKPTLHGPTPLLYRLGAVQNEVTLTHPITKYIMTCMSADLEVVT

SMILES	IC50 [1] [nM]	EC50 [2] [nM]
CC(C)c1cccc2nc(O[C@@H]3C[C@H]4C(=O)N[C@]5(C(=O)NS(=O)(=O)N(C)C)C[C@H]5/C=C\CCCCC[C@H](NC(=O)OC(C)(C)C)C(=O)N4C3)n(C(C)C)c12 [Compound 290]	< 10	10 to 100
COc1ccc2c(O[C@@H]3C[C@H]4C(=O)N[C@]5(C(=O)NS(=O)(=O)C6(C)CC6)C[C@H]5/C=C\CCCCC[C@H](Nc5cccc(F)c5)C(=O)N4C3)nc(-c3nc(C(C)C)cs3)cc2c1C [Compound 1005]	< 10	> 100
CC(C)n1c(O[C@@H]2C[C@H]3C(=O)N[C@]4(C(=O)NS(=O)(=O)C5(C)CC5)C[C@H]4/C=C\CCCCC[C@H](NC(=O)OC4CCCC4)C(=O)N3C2)nc2c(-c3nc(C4CCCC4)cs3)cccc21 [Compound 1412]	< 10	< 10
CCN1CCN(C(=O)c2cccc(N[C@H]3CCCCC/C=C\[C@@H]4C[C@@]4(C(=O)NS(=O)(=O)C4(C)CC4)NC(=O)[C@@H]4C[C@@H](Oc5cc(-c6nc(C(C)C)cs6)nc6c(C)c(OC)ccc56)CN4C3=O)c2)CC1 [Compound 112]	< 10	< 10
Cc1oc(-c2cccc3c2nc(O[C@@H]2C[C@H]4C(=O)N[C@]5(C(=O)NS(=O)(=O)N(C)C)C[C@H]5/C=C\CCCCC[C@H](NC(=O)OC(C)(C)C)C(=O)N4C2)n3C(C)C)nc1C(C)(C)C [Compound 1205]	< 10	< 10
COc1ccc2c(O[C@@H]3C[C@H]4C(=O)N[C@]5(C(=O)NS(=O)(=O)C6(C)CC6)C[C@H]5/C=C\CCCCC[C@H](Nc5cccc(C(=O)N6CCN(c7ccccn7)CC6)c5)C(=O)N4C3)cc(-c3nc(C(C)C)cs3)nc2c1C [Compound 126]	< 10	< 10
Cc1ccc(Cc2csc(-c3cccc4c3nc(O[C@@H]3C[C@H]5C(=O)N[C@]6(C(=O)NS(=O)(=O)C7(C)CC7)C[C@H]6/C=C\CCCCC[C@H](NC(=O)OC(C)(C)C)C(=O)N5C3)n4C(C)C)n2)cc1 [Compound 1719]	< 10	< 10
CN(C)S(=O)(=O)NC(=O)[C@@]12C[C@H]1/C=C\CCCCC[C@H](NC(=O)OC(C)(C)C)C(=O)N1C[C@H](Oc3nc4ccccc4nc3-c3ccc(F)cc3)C[C@H]1C(=O)N2 [Compound 308]	< 10	10 to 100
CC(C)n1c(O[C@@H]2C[C@H]3C(=O)N[C@]4(C(=O)NS(=O)(=O)N(C)C)C[C@H]4/C=C\CCCCC[C@H](NC(=O)OC(C)(C)C)C(=O)N3C2)nc2c(-c3nc(Cc4cccc(F)c4)cs3)cccc21 [Compound 1758]	< 10	10 to 100
CC(C)n1c(O[C@@H]2C[C@H]3C(=O)N[C@]4(C(=O)NS(=O)(=O)C5(C)CC5)C[C@H]4/C=C\CCCCC[C@H](Nc4ccccc4)C(=O)N3C2)nc2c(C(=O)Nc3ccccc3)cccc21 [Compound 273]	< 10	10 to 100
CNC(=O)Nc1cccc2c1nc(O[C@@H]1C[C@H]3C(=O)N[C@]4(C(=O)NS(=O)(=O)N(C)C)C[C@H]4/C=C\CCCCC[C@H](NC(=O)OC(C)(C)C)C(=O)N3C1)n2C(C)C [Compound 1426]	< 10	10 to 100
Cc1cccc(-c2csc(-c3cccc4c3nc(O[C@@H]3C[C@H]5C(=O)N[C@]6(C(=O)NS(=O)(=O)C7(C)CC7)C[C@H]6/C=C\CCCCC[C@H](NC(=O)OC(C)(C)C)C(=O)N5C3)n4C(C)C)n2)c1 [Compound 1713]	< 10	10 to 100
CCCc1nc(-c2cccc3c2nc(O[C@@H]2C[C@H]4C(=O)N[C@]5(C(=O)NS(=O)(=O)N(C)C)C[C@H]5/C=C\CCCCC[C@H](NC(=O)OC(C)(C)C)C(=O)N4C2)n3C(C)C)sc1C [Compound 1209]	< 10	< 10
CCn1cnc2ccc(O[C@@H]3C[C@H]4C(=O)N[C@]5(C(=O)NS(=O)(=O)C6(C)CC6)C[C@H]5/C=C\CCCCC[C@H](NC(=O)OC(C)(C)C)C(=O)N4C3)cc21 [Compound 298]	< 10	> 100
Cc1cnc(-c2cccc3c2nc(O[C@@H]2C[C@H]4C(=O)N[C@]5(C(=O)NS(=O)(=O)C6CC6)C[C@H]5/C=C\CCCCC[C@H](NC(=O)OC(C)(C)C)C(=O)N4C2)n3C(C)C)s1 [Compound 216]	< 10	< 10
COc1ccc(-c2nnn([C@@H]3C[C@H]4C(=O)N[C@]5(C(=O)NS(=O)(=O)C6(C)CC6)C[C@H]5/C=C\CCCCC[C@H](Nc5ccccc5)C(=O)N4C3)n2)cc1 [Compound 804]	< 10	10 to 100
CCCc1nc(-c2cccc3c2nc(O[C@@H]2C[C@H]4C(=O)N[C@]5(C(=O)NS(=O)(=O)N(C)C)C[C@H]5/C=C\CCCCC[C@H](NC(=O)OC(C)(C)C)C(=O)N4C2)n3C(C)C)oc1C [Compound 1206]	< 10	< 10
Cc1oc(-c2cccc3c2nc(O[C@@H]2C[C@H]4C(=O)N[C@]5(C(=O)NS(=O)(=O)N(C)C)C[C@H]5/C=C\CCCCC[C@H](NC(=O)OC(C)(C)C)C(=O)N4C2)n3C(C)C)nc1Cc1ccccc1 [Compound 1214]	< 10	< 10

SMILES	IC50 [1] [nM]	EC50 [2] [nM]
COc1cccc(-c2cccc3c2nc(O[C@@H]2C[C@H]4C(=O)N[C@]5(C(=O)NS(=O)(=O)C6(C)CC6)C[C@H]5/C=C\CCCCC[C@H](Nc5ccccc5)C(=O)N4C2)n3C(C)C)c1 [Compound 244]	< 10	10 to 100
CC(C)n1c(O[C@@H]2C[C@H]3C(=O)N[C@]4(C(=O)NS(=O)(=O)N(C)C)C[C@H]4/C=C\CCCCC[C@H](NC(=O)OC(C)(C)C)C(=O)N3C2)nc2c(NC(=O)NCc3ccccc3)cccc21 [Compound 1423]	< 10	< 10
Cc1sc(-c2cccc3c2nc(O[C@@H]2C[C@H]4C(=O)N[C@]5(C(=O)NS(=O)(=O)C6(C)CC6)C[C@H]5/C=C\CCCCC[C@H](NC(=O)OC(C)(C)C)C(=O)N4C2)n3C(C)C)nc1C(C)C [Compound 237]	< 10	< 10
CC(C)n1c(O[C@@H]2C[C@H]3C(=O)N[C@]4(C(=O)NS(=O)(=O)C5(C)CC5)C[C@H]4/C=C\CCCCC[C@H](NC(=O)OC(C)(C)C)C(=O)N3C2)nc2c(-c3csc(N4CCCCC4)n3)cccc21 [Compound 1706]	< 10	< 10
CN(C)S(=O)(=O)NC(=O)[C@@]12C[C@H]1/C=C\CCCCC[C@H](NC(=O)OC(C)(C)C)C(=O)N1C[C@H](Oc3nc4ccccc4nc3C(C)(C)C)C[C@H]1C(=O)N2 [Compound 304]	< 10	10 to 100
CC(C)n1c(O[C@@H]2C[C@H]3C(=O)N[C@]4(C(=O)NS(=O)(=O)N(C)C)C[C@H]4/C=C\CCCCC[C@H](NC(=O)OC(C)(C)C)C(=O)N3C2)nc2c(-c3nccs3)cccc21 [Compound 226]	< 10	< 10
CC(C)n1c(O[C@@H]2C[C@H]3C(=O)N[C@]4(C(=O)NS(=O)(=O)C5(C)CC5)C[C@H]4/C=C\CCCCC[C@H](Nc4cccc(F)c4)C(=O)N3C2)nc2c(-c3nc(C4CCCC4)cs3)cccc21 [Compound 1729]	< 10	10 to 100
CC(C)NC(=O)c1cccc2c1nc(O[C@@H]1C[C@H]3C(=O)N[C@]4(C(=O)NS(=O)(=O)C5(C)CC5)C[C@H]4/C=C\CCCCC[C@H](Nc4ccccc4)C(=O)N3C1)n2C(C)C [Compound 272]	< 10	10 to 100
CN(C)S(=O)(=O)NC(=O)[C@@]12C[C@H]1/C=C\CCCCC[C@H](NC(=O)OC(C)(C)C)C(=O)N1C[C@H](Oc3nc4ccccc4nc3C(F)(F)F)C[C@H]1C(=O)N2 [Compound 303]	< 10	< 10
CC(C)n1c(O[C@@H]2C[C@H]3C(=O)N[C@]4(C(=O)NS(=O)(=O)C5(C)CC5)C[C@H]4/C=C\CCCCC[C@H](NC(=O)OC(C)(C)C)C(=O)N3C2)nc2c(-c3nc(Cc4ccc(F)cc4)cs3)cccc21 [Compound 1726]	< 10	< 10
CC(C)n1c(O[C@@H]2C[C@H]3C(=O)N[C@]4(C(=O)NS(=O)(=O)C5(C)CC5)C[C@H]4/C=C\CCCCC[C@H](NC(=O)OC(C)(C)C)C(=O)N3C2)nc2c(-c3nccs3)cccc21 [Compound 234]	< 10	< 10
CC(C)n1c(O[C@@H]2C[C@H]3C(=O)N[C@]4(C(=O)NS(=O)(=O)C5(C)CC5)C[C@H]4/C=C\CCCCC[C@H](NC(=O)OC(C)(C)C)C(=O)N3C2)nc2c(-c3nc(-c4ccccc4F)cs3)cccc21 [Compound 1710]	< 10	10 to 100
CN(C)S(=O)(=O)NC(=O)[C@@]12C[C@H]1/C=C\CCCCC[C@H](NC(=O)OC(C)(C)C)C(=O)N1C[C@H](Oc3nc4ccccc4nc3-c3ccccc3)C[C@H]1C(=O)N2 [Compound 306]	< 10	10 to 100
CC(C)n1c(O[C@@H]2C[C@H]3C(=O)N[C@]4(C(=O)NS(=O)(=O)C5(C)CC5)C[C@H]4/C=C\CCCCC[C@H](NC(=O)OC(C)(C)C)C(=O)N3C2)nc2c(-c3cncnc3)cccc21 [Compound 1707]	< 10	< 10
CC(C)c1nc(-c2cccc3c2nc(O[C@@H]2C[C@H]4C(=O)N[C@]5(C(=O)NS(=O)(=O)N(C)C)C[C@H]5/C=C\CCCCC[C@H](Nc5ccccc5)C(=O)N4C2)n3C(C)C)sc1C(C)C [Compound 1218]	< 10	> 100
CC(C)c1ccc2c(c1)nc(O[C@@H]1C[C@H]3C(=O)N[C@]4(C(=O)NS(=O)(=O)C5(C)CC5)C[C@H]4/C=C\CCCCC[C@H](Nc4ccccc4)C(=O)N3C1)n2C(C)C [Compound 202]	< 10	> 100
CCNC(=O)Nc1cccc2c1nc(O[C@@H]1C[C@H]3C(=O)N[C@]4(C(=O)NS(=O)(=O)C5(C)CC5)C[C@H]4/C=C\CCCCC[C@H](Nc4ccccc4)C(=O)N3C1)n2C(C)C [Compound 1405]	< 10	10 to 100
CC(C)n1c(O[C@@H]2C[C@H]3C(=O)N[C@]4(C(=O)NS(=O)(=O)N(C)C)C[C@H]4/C=C\CCCCC[C@H](NC(=O)OC(C)(C)C)C(=O)N3C2)nc2c(C(F)(F)F)cccc21 [Compound 291]	< 10	< 10
